Laboratory results from PubChem BioAssay (NCI).
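48-hour exposure; five concentrations; linearly interpolated endpoints. Abbreviation: GI50, concentration required for 50% inhibition of growth. Definition used: TGI = concentration required for complete inhibition of growth.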

What was measured:
Assay in all cases: inhibition of tumour cell growth, NCI panel, 48 h
786-0 renal = test system: 786-0 renal
A498 renal = test system: A498 renal
A549 NSCLC = test system: A549 NSCLC
ACHN renal = test system: ACHN renal
BT-549 breast = test system: BT-549 breast
CAKI-1 renal = test system: CAKI-1 renal
CCRF-CEM leukemia = test system: CCRF-CEM leukemia
COLO 205 colon = test system: COLO 205 colon
DU-145 prostate = test system: DU-145 prostate
EKVX NSCLC = test system: EKVX NSCLC
HCC-2998 colon = test system: HCC-2998 colon
HCT-116 colon = test system: HCT-116 colon
HCT-15 colon = test system: HCT-15 colon
HOP-62 NSCLC = test system: HOP-62 NSCLC
HOP-92 NSCLC = test system: HOP-92 NSCLC
HS 578T breast = test system: HS 578T breast
HT29 colon = test system: HT29 colon
IGROV1 ovarian = test system: IGROV1 ovarian
K-562 leukemia = test system: K-562 leukemia
KM12 colon = test system: KM12 colon
LOX IMVI melanoma = test system: LOX IMVI melanoma
M14 melanoma = test system: M14 melanoma
MCF7 breast = test system: MCF7 breast
MDA-MB-231 breast = test system: MDA-MB-231 breast
MDA-MB-435 = test system: MDA-MB-435
MOLT-4 leukemia = test system: MOLT-4 leukemia
NCI-H226 lung = test system: NCI-H226 lung
NCI-H23 lung = test system: NCI-H23 lung

## Cc1ccc(Cl)cc1Nc1nc(C(F)(F)F)ccc1C(=O)Oc1ccc(Cl)cc1
786-0 renal
  GI50: 14.3 µM
  TGI: 30.8 µM
A498 renal
  GI50: 11.9 µM
  TGI: 33.2 µM
A549 NSCLC
  GI50: 4.86 µM
  TGI: 20.5 µM
ACHN renal
  GI50: 5.16 µM
  TGI: 18 µM
BT-549 breast
  GI50: 15.6 µM
  TGI: 36.3 µM
CAKI-1 renal
  GI50: 3.31 µM
  TGI: 13.2 µM
CCRF-CEM leukemia
  GI50: 7.68 µM
  TGI: 24.4 µM
COLO 205 colon
  GI50: 9.81 µM
  TGI: > 100 µM
DU-145 prostate
  GI50: 7.73 µM
  TGI: 24.8 µM
EKVX NSCLC
  GI50: 7.26 µM
  TGI: 22.8 µM
HCC-2998 colon
  GI50: 8.86 µM
  TGI: 29.4 µM
HCT-116 colon
  GI50: 4.45 µM
  TGI: 20 µM
HCT-15 colon
  GI50: 10.9 µM
  TGI: 30.8 µM
HOP-62 NSCLC
  GI50: 8.88 µM
  TGI: 23.1 µM
HOP-92 NSCLC
  GI50: 1.92 µM
  TGI: 14.8 µM
HS 578T breast
  GI50: 3.13 µM
  TGI: 14.8 µM
HT29 colon
  GI50: 13.3 µM
  TGI: > 100 µM
IGROV1 ovarian
  GI50: 11.1 µM
  TGI: > 100 µM
K-562 leukemia
  GI50: 4.37 µM
  TGI: 15 µM
KM12 colon
  GI50: 21.6 µM
  TGI: 63.6 µM
LOX IMVI melanoma
  GI50: 5.21 µM
  TGI: 21.9 µM
M14 melanoma
  GI50: 18.1 µM
  TGI: > 100 µM
MCF7 breast
  GI50: 16.8 µM
  TGI: > 100 µM
MDA-MB-231 breast
  GI50: 4.53 µM
  TGI: 20.6 µM
MDA-MB-435
  GI50: 16.8 µM
  TGI: 51.9 µM
MOLT-4 leukemia
  GI50: 7.99 µM
  TGI: 24.3 µM
NCI-H226 lung
  GI50: 12.1 µM
  TGI: 36.1 µM
NCI-H23 lung
  GI50: 11.7 µM
